Assays:
tau = type: cell-based, mouse
Description: (§1) Primary cortical neurons were isolated from brain of wt or transgenic (Mapt^tm1(EGFP)klt Tg(MAPT)8cPdav/J; Jackson Laboratory) embryos at day 14.5. Cortices were collected in DMEM (Lonza) and cells were dissociated by incubation with Trypsin/EDTA for 6.5 min at 37° C. Cells were then diluted in neurobasal medium (Gibco-BRL) containing B27 supplement (Gibco BRL). Cells were plated at a density of 4.0×10^5 onto 0.2 mg/ml poly-D-lysin (Sigma) and 2 μg/ml Laminin (Sigma) coated 12 well plates. Neurons were incubated at 37° C. with 8% CO2. One hour after seeding a complete change of medium was performed. Later on, each 96 hours half volumes of the medium were replaced by fresh medium. After 7 days in culture neurons were treated.
(§2) Cells were incubated with the respective substances as follows: Metformin (Sigma) at final concentrations up to 2.5 mM for 1 to >24 hours, okadaic acid (Sigma) at final concentrations from 1 nM to 10 nM for 4 h, Fostricien (Sigma) at final concentration of 1 μM for 4 h and AICAR (cell signalling) at final concentration of 5 mM for 0.5-16 h. For cell treatment without insulin, medium containing B27+insulin supplement was replaced with medium containing B27-supplement without insulin 24 h before treatment. 3 groups of 2 mice were treated with or without 5 mg/l metformin in the drinking water.
(§3) Cell pellets were homogenized in Magic-Mix (48% UREA, 15 mM Tris-HCL pH 7.5, 8.7% Glycerin, 1% SDS, 0.004% Bromphenolblue, 143 mM Mercaptoethanol), sonicated and boiled for 5 min at 95° C. Proteins were resolved on 8 or 10% SDS gels and blotted onto PVDF-membranes (Roche). Antibodies used in this study were purchased from the following companies: Tau-5 (Biosource), anti-human PHF pSer202 (Thermo scientific), Tau pSer356 (Biosource), Tau pSer262 (Biosource), Tau pSer396 (Sigma), Actin (Sigma), ACC (cell signalling), ACC pSer79 (cell signalling), phospho-S6 ribosomal protein pSer241/244 (cell signalling), p70S6 Kinase (cell signalling), p70S6K pThr421/pSer424 (cell signalling), mTOR (cell signalling), AMPK (cell signallling, AMPK pThr172 (cell singnaling), HRP-anti-rabbit (Amersham), HRP-anti-mouse (Dianova). The resulting bands were quantified using Imagequant5.2. Statistical analyses were performed using SigmaStat software package (v 3.0, SPSS, USA). For timecourse or dose-response studies, data were analyses by one-way ANOVA with post hoc Dunnett's or Bonferonni test to accommodate for multiple comparisons. A Student's t-test was used for two-group comparisons, as appropriate.

ACC = assay: Phosphorylation of the AMPK target ACC (Ser79) in primary cortical neurons; type: cell-based, mouse; conditions: 5 mM AICAR, increasing time intervals
Description: as §1
as §2, with “3 groups of 2 mice were treated with or without 5 mg/l metformin in the drinking water.” left out
as §3, with “Proteins were resolved on 8 or 10% SDS gels and blotted onto PVDF-membranes (Roche).” left out, “Statistical analyses were performed using SigmaStat software package (v 3.0, SPSS, USA). For timecourse or dose-response studies, data were analyses by one-way ANOVA with post hoc Dunnett's or Bonferonni test to accommodate for multiple comparisons. A Student's t-test was used for two-group comparisons, as appropriate.” left out

SMILES | phosphorylation pattern of tau (PP2A sensitive site) (tau; 5 mM AICAR, first 16 hours of treatment) | phosphorylation of tau (Ser202) (tau; AICAR, first 8 hours of treatment) | ACC phosphorylation (Ser79) (ACC) | phosphorylation at Ser202 (tau; 1 μM fostriecin alone over 4 hours)
NC(=O)c1ncn([C@@H]2O[C@H](CO)[C@@H](O)[C@H]2O)c1N [AICAR] | did not find a significant effect | did not see an effect | significantly increased | 
C[C@@](O)(/C=C/[C@H]1CC=CC(=O)O1)[C@@H](C[C@@H](O)\C=C/C=C\C=C\CO)OP(=O)(O)O [fostriecin] |  |  |  | increased

— US20120184624A1, “Treatment of Alzheimer's Disease” (priority 2010, published 2012)
